Read-outs that look alike come from different tables or passages of the source. One block for each molecule: values may come before it.
Assays:
[1] = test system: circulating RBC; test: P50 shift of circulating RBC after (intraperitoneal) injection in mice; details: maximum; for shift in the Hb-O2 dissociation curve: IP injection
[2] = test system: pig whole blood; test: In vitro P50 in whole blood after incubation with effector; assay type: cell-based; details: effector 60 mM
Procedure: (§1) As usual, pH's for the compound-solutions were adjusted to ˜7.0, osmolarities for both solutions were determined (325-373 mOsM) prior to effectors, and whole blood volumes at 1:1 ratios were incubated.

[3] = test system: human whole blood; test: as above; assay type: cell-based; details: effector 60 mM
Procedure: as §1

[4] = test system: mouse whole blood; test: as above; assay type: cell-based; details: effector 60 mM
Procedure: as §1

[5] = test system: whole blood; test: In vitro incubation of whole blood of three species, summary statements; assay type: cell-based, human, mouse and pig; details: whole blood of human, mouse and pig, 60 mM
Procedure: as §1

[6] = test system: porcine whole blood; test: In vitro P50 of porcine whole blood with effector (iso-osmolar); assay type: cell-based, pig; details: for P50 mm Hg: control 33.5
Procedure: (§2) Two further effectors, kf133 and kf137, were tested in vitro for P50 shifts with porcine hemoglobin and whole blood. The compounds were well soluble. As usual, pH was adjusted to ˜7.0 and effector solution (2.5 mM) and hemoglobin (2.5 mM) were mixed at a 1:1 ratio. Whole blood and the effector solution were mixed at iso-osmolarity at pH=7. P50 values were measured as described in the previous experiments.

[7] = Solubility of effector solutions; assay type: physicochemical; details: pH ~7.0
Procedure: as §2

[8] = molecular target: porcine hemoglobin (Sus scrofa, UniProt P02067); test: In vitro P50 of porcine free hemoglobin with effector; assay type: biochemical, pig; details: porcine free hemoglobin 2.5 mM, effector 2.5 mM, 1:1; for P50 mm Hg: control 20.4, 19.9
Sequence of porcine hemoglobin (P01965 whole entry partner): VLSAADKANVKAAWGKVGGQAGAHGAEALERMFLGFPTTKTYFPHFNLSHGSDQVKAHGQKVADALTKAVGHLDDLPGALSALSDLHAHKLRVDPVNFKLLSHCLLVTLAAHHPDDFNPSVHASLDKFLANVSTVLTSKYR
Sequence of porcine hemoglobin (P02067 2-147 limits assumed): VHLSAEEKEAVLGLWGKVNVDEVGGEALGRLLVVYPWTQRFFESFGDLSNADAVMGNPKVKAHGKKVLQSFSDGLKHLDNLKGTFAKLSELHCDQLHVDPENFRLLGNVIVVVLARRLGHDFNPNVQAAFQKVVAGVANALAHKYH
Procedure: as §2

[9] = test system: C57BL/6 mice; test: Tolerability of intraperitoneal injection in mice; assay type: in vivo; details: concentration of (up to) 120 mM
[10] = 1-octanol/water partition coefficient Kow; assay type: physicochemical; details: after equilibration at 30 mM
Procedure: Partition coefficients relate to the distribution of a solute between two immiscible liquid phases and are defined as the ratios of concentrations (or molar fraction) of the distributed solute.
The partition coefficients for our compounds, Kow=[ITPP]1-octanol/[ITPP]water, were measured after equilibration at a concentration of 30 mM, close to the typical concentration employed for biological evaluations.

[11] = Toxicity, general statements on the biological experiments; assay type: in vivo; details: general statement
[12] = molecular target: stripped hemoglobin (Homo sapiens, UniProt P68871); details: cited from earlier work
Sequence of stripped hemoglobin (P69905 2-142 partner limits assumed): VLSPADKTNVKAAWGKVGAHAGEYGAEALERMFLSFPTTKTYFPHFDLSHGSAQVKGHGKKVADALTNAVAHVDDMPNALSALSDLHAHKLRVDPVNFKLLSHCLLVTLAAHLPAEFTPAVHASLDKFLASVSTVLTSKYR
Sequence of stripped hemoglobin (P68871 2-147 limits assumed): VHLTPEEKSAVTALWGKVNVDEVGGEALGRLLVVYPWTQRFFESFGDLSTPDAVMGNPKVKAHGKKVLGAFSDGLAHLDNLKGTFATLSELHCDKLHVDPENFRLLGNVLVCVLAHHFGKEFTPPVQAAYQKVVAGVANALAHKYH

[13] = Chemical hydrolysis of IHP-pyrophosphate at alkaline pH (31P-NMR); assay type: physicochemical
Procedure: Experiments designed to test IHP-pyrophosphate's resistance to chemical hydrolysis were conducted. ITPP N,N-dimethyl-cyclohexylammonium salt solutions were adjusted at pH 8.66, 10.20, 12.05 and 13.30. In order to avoid any damage to the NMR tubes due to the highly alkaline solutions, all samples were checked using ^31P-NMR at different time intervals against an external Ph3PO/DMSO solution. This method also avoided concentrating the samples and redissolving them in a deuterated solvent, which may have led to changes in the results. […] Observing this stability, we exposed the pH=13.30 sample to heat at 60° C. for 6 h. […] After 22 h at the same temperature, hydrolysis was only 19%. Facing this extreme stability to chemical hydrolysis we concentrated to dryness both solutions of pH 10.20 and 13.30 and dissolved them in D2O.

[14] = test system: baker's yeast; assay type: in vitro ADME; details: pH 4.6
Procedure: ITPP was dissolved in a buffer solution of a pH 4.6 and heated in the presence of baker's yeast for 12 h at 45° C. Non selective hydrolysis of approximately 25% occurred.

[15] = porcine whole blood, iso-osmolarity, pH=7

Molecule: IHP Cholesteryoxy Carbonyl Hepta N,N-Dimethyl Cyclohexyl Ammonium Salt [kf96]
- shift in the Hb-O2 dissociation curve ([1]; 30 mM): up to 17%
- shift in the Hb-O2 dissociation curve ([1]; 60 mM): up to 24%
- P50 Increase % ([2]; 1:1): 27%
- P50 mm Hg ([2]; 1:1, control 32.2): 41.1 mm Hg
- P50 Increase % ([3]; 1:1): 27%
- P50 mm Hg ([3]; 1:1, control 22.1): 28 mm Hg
- P50 Increase % ([4]; 1:1): 20%
- P50 mm Hg ([4]; 1:1, control 36.7): 43.9 mm Hg
- right shift in the Hb-O2 dissociation curve, all blood samples [5]: 27%

Molecule: Hexanoy-IHP NN-DMCHA salt [kf137]
- lysis of the RBC ([6]; porcine whole blood in vitro): Noticeable lysis
- P50 mm Hg [6, 15]: 51.5 mm Hg
- solubility [7]: well soluble
- P50 Increase % [8]: 120%
- P50 mm Hg [8]: 45.1 mm Hg
- tolerability in mice [9]: well tolerated

Molecule: NC1CCCCCCC1.NC1CCCCCCC1.NC1CCCCCCC1.NC1CCCCCCC1.NC1CCCCCCC1.NC1CCCCCCC1.O=P1(O)OP(=O)(O)O[C@H]2[C@H](O1)[C@@H]1OP(=O)(O)OP(=O)(O)O[C@@H]1[C@H]1OP(=O)(O)OP(=O)(O)O[C@H]21 [cyclooctylammonium ITPP salt]
- Kow=[ITPP]1-octanol/[ITPP]water [10]: 0.462

Molecule: IHP Cholesteryoxy Carbonyl Hepta N,N-Dimethyl Cyclohexyl Ammonium Salt [kf16.4]
- right shift in the P50 ([1]; ip, 6 animals): up to 18%

- Kow=[ITPP]1-octanol/[ITPP]water [10]: 0.0121
Molecule: NC1CCCCCC1.NC1CCCCCC1.NC1CCCCCC1.NC1CCCCCC1.NC1CCCCCC1.NC1CCCCCC1.O=P1(O)OC2C3OP(=O)(O)OP(=O)(O)OC3C3OP(=O)(O)OP(=O)(O)OC3C2OP(=O)(O)O1 (stereo not shown) [cycloheptylammonium ITPP salt]

Molecule: IHP monopyrophosphate hexasodium salt [kf133]
- P50 Increase % [6, 15]: 14.5%
- P50 mm Hg [6, 15]: 38.4 mm Hg
- solubility [7]: well soluble
- P50 Increase % [8]: 143%
- P50 mm Hg [8]: 48.5 mm Hg
- tolerability in mice [9]: well tolerated
- toxicity / tolerability [11]: non-toxic

Molecule: O=C(O)[C@@H](COP(=O)(O)O)OP(=O)(O)O [2,3-Diphosphoglycerate, 2,3-diphosph-D-glyceric acid]
- O2 half-saturation pressure P(O2)(½) of stripped hemoglobin ([12]; pH 7.4, 25° C.): 12.0 mm Hg
- O2 half-saturation pressure P(O2)(½) of stripped hemoglobin ([12]; pH 7.4, 37° C.): 23.7 mm Hg

- hydrolysis (changes in 31P-NMR) ([13]; pH 8.66, 10.20, 12.05, after 3 days): No changes were observed
- change after concentration to dryness ([13]; pH 10.20, redissolved in D2O): remained unchanged
- hydrolysis ([13]; pH=13.30, 60° C. for 6 h): 13%
- hydrolysis ([13]; pH=13.30, 60° C., after 22 h): 19%
- hydrolysis ([13]; pH=13.3, after 3 days): 7%
Molecule: N,N-Dimethyl cyclohexyl ammonium Salt of Myo-inositol 1,6:2,3:4,5-Tripyrophosphate
- change after concentration to dryness ([13]; pH=13.30, redissolved in D2O): completely converted to the IHP open form sodium salt

- non selective enzymatic hydrolysis [14]: approximately 25%
Molecule: O=P1(O)OC2C3OP(=O)(O)OP(=O)(O)OC3C3OP(=O)(O)OP(=O)(O)OC3C2OP(=O)(O)O1 (stereo not shown) [ITPP, inositol tripyrophosphate]
